Source: US4435425A, “Fluorinated diaminobutane derivatives” (Merrell Toraude et Compagnie, priority 1982, dated 1984)

Tests used:
[1] = Toxicity (weight loss and deaths) in mice after daily i.p. injection for four consecutive days, observed up to 12 days (Example 10); format: in vivo, mice (male albino CDI)
Protocol: (§1) A group of 10 male albino CDI mice from Charles Riner, France, is given an i.p. injection of the test compound in aqueous solution daily for four consecutive days. Half of the animals are killed by decapitation 24 hours after the last dose of the test compound. The other half of the animals are observed for up to 12 days for toxicity (as indicated by weight loss and deaths). Control animals receive an injection of the vehicle only.
(§2) When tested as described above, 1-fluoro-2,4-diaminobutane (MFDB) and 1,1-difluoro-2,4-diaminobutane (DFDB) gave the results set forth in Table I below: […]

[2] = test system: GABA-T; assay: GABA-T inhibition in mouse brain after daily i.p. injection for four consecutive days (Example 10); format: in vivo, mice (male albino CDI); details: 24 hours after last dose
Protocol: as §1
The brains are removed from the dead mice and are divided into two portions by sagittal section. One half is used for the measurement of GABA-T activity while the other half is used for measuring GABA content. The GABA-T activity is measured using known methods as described by M. Jung et al., J. Neurochem., 28, 717 (1977) and 29, 797 (1977). GABA content is measured by perchloric acid or trichloroacetic acid extracts using an amino acid analyzer equiped with a fluorescene detector.
as §2

[3] = 5 mg/kg daily i.p. for 4 days, observed up to 12 days

Compound	Weight Loss ([1]; 2 mg/kg daily i.p. for 4 days)	Morality (After treatment) ([1]; 2 mg/kg daily i.p. for 4 days, observed up to 12 days)	Weight Loss ([1]; 5 mg/kg daily i.p. for 4 days)	Morality (After treatment) [1, 3]	Weight Loss ([1]; 10 mg/kg daily i.p. for 4 days)	Morality (After treatment) ([1]; 10 mg/kg daily i.p. for 4 days, by day 8)	Weight Loss ([1]; 20 mg/kg daily i.p. for 4 days)	Morality (After treatment) ([1]; 20 mg/kg daily i.p. for 4 days, by day 6)	GABA-T Inhibition ([2]; 2 mg/kg daily i.p. for 4 days)	GABA-T Inhibition ([2]; 5 mg/kg daily i.p. for 4 days)	GABA-T Inhibition ([2]; 10 mg/kg daily i.p. for 4 days)	GABA-T Inhibition ([2]; 20 mg/kg daily i.p. for 4 days)	Morality (After treatment) ([1]; 10 mg/kg daily i.p. for 4 days, observed up to 12 days)	Weight Loss ([1]; 25 mg/kg daily i.p. for 4 days)	Morality (After treatment) ([1]; 25 mg/kg daily i.p. for 4 days, on day 12)	Weight Loss ([1]; 50 mg/kg daily i.p. for 4 days)	Morality (After treatment) ([1]; 50 mg/kg daily i.p. for 4 days, on day 8)	GABA-T Inhibition ([2]; 25 mg/kg daily i.p. for 4 days)	GABA-T Inhibition ([2]; 50 mg/kg daily i.p. for 4 days)
NCCC(N)C(F)F (stereo not drawn) [DFDB, 1,1-Difluoro-2,4-diaminobutane]	0%	0/5	0%	0/5	-25%	2/5	-30%	5/5	69.5%	71.4%	81%	96.7%	–	–	–	–	–	–	–
NCCC(N)CF (stereo not drawn) [MFDB, 1-Fluoro-2,4-diaminobutane]	–	–	0%	0/5	0%	–	–	–	–	39.7%	49.8%	–	0/5	-20%	2/5	-35%	3/5	74%	79%
